How the values were obtained:
[1] = target: Metallo-beta-lactamase type 2 (Bacteria) (UniProt C7C422)
Description: Binding affinity to C-terminal 6His-tagged full length truncated NDM-1 (unknown origin) expressed in Escherichia coli BL21-DE3 assessed as change in enthalpy in presence of EDTA by isothermal titration calorimetric analysis

[2] = target: Metallo-beta-lactamase type 2 (Bacteria) (UniProt C7C422); remark: listed apart in the source
Description: Binding affinity to C-terminal 6His-tagged full length truncated NDM-1 (unknown origin) expressed in Escherichia coli BL21-DE3 assessed as change in enthalpy by isothermal titration calorimetric analysis

[3] = Selectivity ratio of Ki for human recombinant MMP-2 CD to Ki for C-terminal 6His-tagged full length NDM-1 (unknown origin)
[4] = Inhibition of VIM-2 (unknown origin) incubated for 15 mins by absorbance based microplate reader analysis; set-up: species or system Bacteria
Escherichia coli [5] = assay: Antibacterial activity against clinical isolate Escherichia coli K12 J53-ST10 618/15 expressing blaNDM-1 assessed as meropenem MIC at 72.88 uM measured after 20 hrs by broth microdilution assay (reference value: 24 mg/L); type: functional
Escherichia coli [6] = assay: Antibacterial activity against clinical isolate Escherichia coli ST1012/10 expressing blaNDM-1 co-expressing blaTEM-1/blaCTX-M-15/blaOXA-1 and blaOXA-2 assessed as meropenem MIC at 36.44 uM measured after 20 hrs by broth microdilution assay (reference value: 12 mg/L); type: functional
Klebsiella pneumoniae [7] = assay: Antibacterial activity against clinical isolate Klebsiella pneumoniae ST23213/19 expressing blaNDM-1 co-expressing blaOXA-48/blaSHV-11/blaCTX-M-15 and blaOXA-1 assessed as meropenem MIC at 72.88 uM measured after 20 hrs by broth microdilution assay (reference value: 24 mg/L); type: functional
Klebsiella pneumoniae [8] = assay: Antibacterial activity against clinical isolate Klebsiella pneumoniae 50/11 expressing blaNDM-1 co-expressing blaTEM-1/blaSHV-28/blaTEM-1/blaCTX-M-15 and blaOXA-1 assessed as meropenem MIC at 72.88 uM measured after 20 hrs by broth microdilution assay (reference value: 24 mg/L); type: functional
[9] = target: T1, Metallo-beta-lactamase type 2 (Bacteria, UniProt C7C422)
Description: Inhibition of C-terminal 6His-tagged full length NDM-1 (unknown origin) expressed in Escherichia coli BL21-DE3 using nitrocefin as substrate incubated for 15 mins followed by substrate addition by absorbance based microplate reader analysis

Escherichia coli [10] = assay: Antibacterial activity against clinical isolate Escherichia coli K12 J53-ST10 699/15 expressing blaNDM-1 assessed as meropenem MIC at 72.88 uM measured after 20 hrs by broth microdilution assay (reference value: 24 mg/L); type: functional
[11] = target: Histone deacetylase 1 (Homo sapiens) (UniProt Q13547); assay: Inhibition of C-terminal 6His/FLAG-tagged human recombinant full-length HDAC1 (1 to 482(end) residues) at 10 uM using Boc-Lys-(Ac)-AMC as substrate incubated for 10 mins followed by substrate addition measured after 1 hr by fluorescence based analysis relative to control; conditions: time 70.0 min
[12] = Inhibition of GIM1 (unknown origin) incubated for 15 mins by absorbance based microplate reader analysis; set-up: species or system Bacteria
Klebsiella pneumoniae [13] = assay: Antibacterial activity against clinical isolate Klebsiella pneumoniae 62/07 expressing blaVIM-19 co-expressing blaSHV-1/blaCTX-M-14 and blaCMY-4 assessed as meropenem MIC at 36.44 uM measured after 20 hrs by broth microdilution assay (reference value: 12 mg/L); type: functional
Klebsiella pneumoniae [14] = assay: Antibacterial activity against clinical isolate Klebsiella pneumoniae ST1493/10 expressing blaNDM-1 co-expressing blaCMY-2like/blaTEM-1/blaCTX-M-15/blaSHV-28/blaOXA-1 and blaOXA-9 assessed as meropenem MIC at 72.88 uM measured after 20 hrs by broth microdilution assay (reference value: 24 mg/L); type: functional
Escherichia coli [15] = assay: Antibacterial activity against clinical isolate Escherichia coli K12 J53-ST10 684/18 expressing blaNDM-1 co-expressing blaCMY-2 and blaOXA-10 assessed as meropenem MIC at 72.88 uM measured after 20 hrs by broth microdilution assay (reference value: 24 mg/L); type: functional
[16] = Inhibition of IMP-1 (unknown origin) expressed in Escherichia coli BL21-DE3 incubated for 15 mins by absorbance based microplate reader analysis; set-up: species or system Bacteria
[17] = target: T1, Metallo-beta-lactamase type 2; remark: listed apart in the source
Description: Binding affinity to C-terminal 6His-tagged full length truncated NDM-1 (unknown origin) expressed in Escherichia coli BL21-DE3 assessed as dissociation constant by isothermal titration calorimetric analysis

Escherichia coli [18] = assay: Antibacterial activity against clinical isolate Escherichia coli K12 J53-ST10 618/15 expressing blaNDM-1 assessed as meropenem MIC at 36.44 uM measured after 20 hrs by broth microdilution assay (reference value: 12 mg/L); type: functional
[19] = target: Carbonic anhydrase 2 (Homo sapiens) (UniProt P00918); assay: Inhibition of human CA2 at 10 uM using pNPA as substrate preincubated for 15 mins followed by substrate by absorbance based analysis relative to control
[20] = target: T1, Metallo-beta-lactamase type 2; remark: listed apart in the source
Description: Binding affinity to C-terminal 6His-tagged full length biotin-labeled NDM-1 (unknown origin) expressed in Escherichia coli BL21-DE3 assessed as dissociation constant by BLI assay

Escherichia coli [21] = assay: Antibacterial activity against clinical isolate Escherichia coli 371/12 expressing blaNDM-7 co-expressing blaCTX-M-15 and blaOXA-1 assessed as meropenem MIC at 36.44 uM measured after 20 hrs by broth microdilution assay (reference value: 12 mg/L); type: functional
Acinetobacter baumannii = assay: Antibacterial activity against clinical isolate Acinetobacter baumannii IC 19/09 expressing blaNDM-1 co-expressing blaOXA-64 assessed as meropenem MIC at 72.88 uM measured after 20 hrs by broth microdilution assay (reference value: 24 mg/L); type: functional
Escherichia coli [22] = assay: Antibacterial activity against clinical isolate Escherichia coli K12 J53-ST10 684/18 expressing blaNDM-1 co-expressing blaCMY-2 and blaOXA-10 assessed as meropenem MIC at 36.44 uM measured after 20 hrs by broth microdilution assay (reference value: 12 mg/L); type: functional
[23] = target: 72 kDa type IV collagenase (Homo sapiens, UniProt P08253); assay: Inhibition of human recombinant MMP-2 CD at 10 uM using OMNIMMP as substrate incubated for 30 mins by fluorescence based analysis relative to control
[24] = target: Metallo-beta-lactamase type 2 (Bacteria) (UniProt C7C422); remark: listed apart in the source
Escherichia coli [25] = assay: Antibacterial activity against clinical isolate Escherichia coli K12 J53-ST10 696/17 expressing blaNDM-1 co-expressing blaCMY-4 assessed as meropenem MIC at 36.44 uM measured after 20 hrs by broth microdilution assay (reference value: 12 mg/L); type: functional
Escherichia coli [26] = assay: Antibacterial activity against clinical isolate Escherichia coli K12 J53-ST10 699/15 expressing blaNDM-1 assessed as meropenem MIC at 36.44 uM measured after 20 hrs by broth microdilution assay (reference value: 12 mg/L); type: functional
Escherichia coli [27] = assay: Antibacterial activity against clinical isolate Escherichia coli ST1012/10 expressing blaNDM-1 co-expressing blaTEM-1/blaCTX-M-15/blaOXA-1 and blaOXA-2 assessed as meropenem MIC at 72.88 uM measured after 20 hrs by broth microdilution assay (reference value: 24 mg/L); type: functional
Klebsiella pneumoniae [28] = assay: Antibacterial activity against clinical isolate Klebsiella pneumoniae ST23213/19 expressing blaNDM-1 co-expressing blaOXA-48/blaSHV-11/blaCTX-M-15 and blaOXA-1 assessed as meropenem MIC at 36.44 uM measured after 20 hrs by broth microdilution assay (reference value: 12 mg/L); type: functional

Metallo-beta-lactamase type 2 (Bacteria), sequence (C7C422 whole entry): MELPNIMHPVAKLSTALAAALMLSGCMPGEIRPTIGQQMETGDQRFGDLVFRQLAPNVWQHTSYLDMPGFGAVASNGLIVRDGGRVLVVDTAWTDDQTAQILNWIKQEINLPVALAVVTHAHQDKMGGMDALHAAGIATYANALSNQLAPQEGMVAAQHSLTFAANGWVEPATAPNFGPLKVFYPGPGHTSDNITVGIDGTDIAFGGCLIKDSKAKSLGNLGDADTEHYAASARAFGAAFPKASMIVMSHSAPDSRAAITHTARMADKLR
T1 sequence (C7C422 whole entry): as above
Histone deacetylase 1 (Homo sapiens), sequence (Q13547 whole entry): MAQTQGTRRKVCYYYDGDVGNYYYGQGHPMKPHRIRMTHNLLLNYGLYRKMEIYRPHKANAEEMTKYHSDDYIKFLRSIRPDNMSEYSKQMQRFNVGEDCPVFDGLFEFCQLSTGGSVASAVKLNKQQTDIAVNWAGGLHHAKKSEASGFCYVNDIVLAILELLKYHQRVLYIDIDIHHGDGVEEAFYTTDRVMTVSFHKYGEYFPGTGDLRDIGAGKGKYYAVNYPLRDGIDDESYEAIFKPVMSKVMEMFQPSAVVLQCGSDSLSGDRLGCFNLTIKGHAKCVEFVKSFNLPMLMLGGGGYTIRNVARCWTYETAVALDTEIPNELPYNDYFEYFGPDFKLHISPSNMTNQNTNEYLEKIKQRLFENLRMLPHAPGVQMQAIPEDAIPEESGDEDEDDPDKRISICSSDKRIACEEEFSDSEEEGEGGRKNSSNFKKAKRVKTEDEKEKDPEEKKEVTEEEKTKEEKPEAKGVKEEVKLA
72 kDa type IV collagenase, sequence (P08253 110-660 limits assumed): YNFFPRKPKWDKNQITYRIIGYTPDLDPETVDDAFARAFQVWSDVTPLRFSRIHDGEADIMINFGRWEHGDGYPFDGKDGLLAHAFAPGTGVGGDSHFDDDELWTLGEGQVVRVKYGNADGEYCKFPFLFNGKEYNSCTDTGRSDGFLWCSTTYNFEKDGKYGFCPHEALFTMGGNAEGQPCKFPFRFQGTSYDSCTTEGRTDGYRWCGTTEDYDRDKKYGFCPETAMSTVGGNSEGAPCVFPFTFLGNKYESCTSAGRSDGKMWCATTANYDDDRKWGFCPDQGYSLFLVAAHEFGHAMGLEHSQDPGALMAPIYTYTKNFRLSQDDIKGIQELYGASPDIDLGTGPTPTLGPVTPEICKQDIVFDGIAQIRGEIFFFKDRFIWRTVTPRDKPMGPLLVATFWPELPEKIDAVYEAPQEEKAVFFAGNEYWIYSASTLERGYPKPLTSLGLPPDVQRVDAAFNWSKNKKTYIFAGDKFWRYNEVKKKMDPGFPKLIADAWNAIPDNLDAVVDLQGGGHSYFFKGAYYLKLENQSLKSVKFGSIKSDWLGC

O=C(O)c1ccc2cccc(NS(=O)(=O)c3ccccn3)c2n1
deltaH [1]: -9.56 kcal/mol
deltaH [2]: -6.6 kcal/mol
Ratio Ki [3]: 40
IC50 [4]: 240 nM
MIC (Escherichia coli [5]): ≤ 0.125 µg/mL
MIC (Escherichia coli [6]): ≤ 0.125 µg/mL
MIC (Klebsiella pneumoniae [7]): 16 µg/mL
MIC (Klebsiella pneumoniae [8]): ≤ 0.125 µg/mL
IC50 [9]: 290 nM
MIC (Escherichia coli [10]): ≤ 0.125 µg/mL
inhibition [11]: < 5%
IC50 [12]: 650 nM
MIC (Klebsiella pneumoniae [13]): 2 µg/mL
MIC (Klebsiella pneumoniae [14]): 1 µg/mL
MIC (Escherichia coli [15]): ≤ 0.125 µg/mL
IC50 [16]: 370 nM
Kd [17]: 105 nM
MIC (Escherichia coli [18]): ≤ 0.125 µg/mL
inhibition [19]: < 5%
Kd [20]: 14100 nM
MIC (Escherichia coli [21]): 8 µg/mL
MIC (Acinetobacter baumannii): 1 µg/mL
MIC (Escherichia coli [22]): ≤ 0.125 µg/mL
inhibition [23]: > 90%
ΔTm [24]: 15 °C
MIC (Escherichia coli [25]): ≤ 0.125 µg/mL
MIC (Escherichia coli [26]): 0.5 µg/mL
MIC (Escherichia coli [27]): ≤ 0.125 µg/mL
MIC (Klebsiella pneumoniae [28]): 16 µg/mL
